# According to article PMC5295395, “Inhibition of PlexA1-mediated brain tumor growth and tumor-associated angiogenesis using a transmembrane domain targeting peptide” (Oncotarget, 2016):
# Legend:
# [1] = system: GBM tumors grafted in brain of immunocompromised mice; test: orthotopic GBM graft in mouse brain; assay type: in vivo, human cells in mouse; conditions: i.p., 1 μg/kg every 3 days for 3 weeks, 1.5 µg/kg 3 times per week
# Description: To address the biological consequences of MTP-PlexA1-mediated inhibition of PlexA1 we used the U118MG-Luc glioma cell line genetically engineered to express the luciferase reporter gene. […] Cells were then grafted subcutaneously and tumor growth was monitored every 5 days for a total period of 20 days. […] The quantitative analysis of the cumulated luminescent signal acquired all along the protocol confirmed the strong reduction of tumor development translating into a marked 75% reduction of the averaged luminescent signal at the end point (Figure 6C). […] However, responses were strong for 8 out of 10 mice with some responses close to 100%, all of them being at least Partial Response (PR) (Figure 6D). In order to clarify the mechanism by which MTP-PlexA1 is exerting tumor growth inhibition we collected tumors and analyzed them histologically.
# Supplementary Figure S5: We performed an orthotropic grafting experiment to monitor the effect of MTP-PlexA1 on GBM tumors developing in their native microenvironment. All procedures using animals are submitted to the Animal Care and Use Committee of AL/54/61/02/13. Immunocompromised mice are anesthetized with isoflurane 3% (BAXTER), under 0.5 L O2, and received a subcutaneous injection of ketofen 1% 1.5 mL/Kg (MERIAL). The scalp is incised and 100 000 cells of the dissociated GBM biopsy were engrafted with a 2 µL Hamilton syringe (HARVARD APPARATUS; HAM-88400) mounted on a stereotaxic set up (HARVARD APPARATUS) to inject cells at the following coordinates from the bregma x: −2 mm; y: +1 mm; z: −3.5 mm at a speed of 0.66 µl/min, 5 minutes after the syringe introduction. […] Tumor volume is calculated by the addition of every partial volume: [V total = Σ partial volumes = Σ d1 × (S1 + S2)/2 + d2 x (S2 + S3)/2 + … + dn x […]]. […] The immunostaining procedure used to quantify proliferation and vascularization of the tumor is described in the method section.While not strongly impacting tumor volume (−14.5%, p = 0.54, Mann Whitney test) the intraperitoneal […]
# [2] = system: HUVEC cells; test: live-monitoring trans-well migration assay, HUVEC (X-Celligence); assay type: cell-based, human; conditions: p = 0.0002
# Description: We observed PlexA1 positive blood vessels in the tissue array of GBM samples (Figure 5A). […] To address this possibility we first used a transgenic zebra-fish model tg(kdrl:eGFP) highlighting the endothelial cells. This allowed us to assess the angiogenic activities in vivo by analyzing formation of intersegmental vessels (ISVs) after morpholino-based knockdown of the target.
# Figure 5 MTP-PlexA1 inhibits developmental and tumor-specific PlexA1 pro-angiogenic role (A) Microphotographs illustrating the expression of PlexA1 in vascular-like structures in human glioma tissues. (Scale bar: 40 μm). (B) Morpholino-based PlexA1 knockdown in Zebrafish tg(kdrl:eGFP) line. Representative images of control, Plexin-A1 mismatch and Pexin-A1 knockdown embryos (plxna1MO) are shown 28 hours post fertilization (28hpf). […] (E) Live-monitoring of VEGF-induced HUVEC cell migration assay using the XCelligence system (transwell assay). (F) Microphotographs illustrating the expression of PlexA1 in blood vessels of the chick chorioallontoic membrane (upper left picture). Microphotographs (middle and lower left pictures) and camera lucida drawing (middle and lower right pictures) showing representative fields of observation after 24 h incubation with VEGF (100 ng/ml, +vehicle) or VEGF + MTP-PlexA1 (10^−7 M). The number of VEGF-induced new blood vessels is shown in the graph.
sequence,measurement,setting,value
"TLPAIVGIGGGGGLLLLVIVAVLIAYKRK [MTP-PlexA1, synthetic transmembrane peptide mimicking the TMD of PlexA1]","change of tumor volume, orthotopic","[1]; n = 12, p = 0.54, Mann Whitney",−14.5%
same,"change of PH3 positive cells, orthotopic",[1]; p = 0.0023,−38.3%
same,"change of angiogenesis, orthotopic",[1]; p = 0.0378,−14.3%
same,change of VEGFA-induced HUVEC cell migration,[2],−63%
